Reference: BindingDB's records for PubMed 36250680 (University of Pisa, 2022)

Molecular target: Macrophage metalloelastase (Homo sapiens, UniProt P39900)
Assay: Inhibition of MMP12 (unknown origin)

Macrophage metalloelastase, sequence (P39900 whole entry): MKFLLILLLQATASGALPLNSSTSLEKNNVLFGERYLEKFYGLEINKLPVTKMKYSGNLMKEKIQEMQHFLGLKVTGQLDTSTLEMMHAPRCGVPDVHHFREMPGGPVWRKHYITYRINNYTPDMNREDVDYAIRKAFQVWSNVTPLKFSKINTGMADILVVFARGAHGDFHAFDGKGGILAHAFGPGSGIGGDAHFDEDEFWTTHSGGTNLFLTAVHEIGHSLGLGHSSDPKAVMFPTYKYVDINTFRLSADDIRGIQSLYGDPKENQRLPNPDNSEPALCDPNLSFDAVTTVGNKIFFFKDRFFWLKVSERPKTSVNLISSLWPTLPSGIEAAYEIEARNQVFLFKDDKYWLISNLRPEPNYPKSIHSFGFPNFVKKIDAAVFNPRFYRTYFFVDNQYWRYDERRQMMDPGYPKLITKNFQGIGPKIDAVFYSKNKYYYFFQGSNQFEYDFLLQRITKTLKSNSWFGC

Ki: 2030 nM
SMILES: Oc1cccc(O)c1O
